Source: patent US8901167B2, “Product and process for inhibition of biofilm development” (National Jewish Health, priority 2004, dated 2014)
Values after ≈ are worked out from the molar mass of the structure shown.

Assays:
[1] = system: P. aeruginosa strain PA01 biofilm; experiment: Antibiotic susceptibility of biofilm population (MBEC), NCCLS assay; assay type: cell-based; settings: for Susceptibility of biofilms grown in the presence of neutrophils versus absence: biofilms grown 24 hours
Experimental: (§1) As human neutrophils enhance biofilm development, the inventors questioned if biofilms formed in the presence of neutrophils had altered patterns of antibiotic resistance. Biofilms and planktonic P. aeruginosa grown in the presence or absence of neutrophils for 24 hours were tested for susceptibility to four clinically relevant classes of antibiotics. […] No significant changes in antibiotic susceptibilities was detected in planktonic P. aeruginosa in the presence of neutrophils. This selective modification of antibiotic resistance supports the conclusion that neutrophils mediate phenotypic changes in addition to greater biofilm thickness.

[2] = system: P. aeruginosa strain PA01; experiment: Antibiotic susceptibility of planktonic population (MIC), NCCLS assay; assay type: cell-based; settings: Pseudomonas aeruginosa
Experimental: as §1

[3] = system: P. aeruginosa PA01 biofilm; assay type: cell-based; settings: for Effect on neutrophil-induced enhancement of biofilm formation: CV staining, DNase I 90 Kunitz units/ml, gelsolin 200 nM, FIG. 3C
Experimental: A static biofilm assay was used with polypropylene tubes (9). PA01 was grown overnight under constant rotation to late stationary phase at 37° C. in LB. All biofilm studies were initiated with neutrophils (1×10^7 cells/ml) and PA01 (1×10^6 CFU/ml) in suspension, and cultures were incubated under stationary conditions at 37° C. P. aeruginosa adherent to the tube was considered to be a biofilm, while bacteria not adherent to the surface of the tube was considered to be “planktonic”. Viable P. aeruginosa biofilm and planktonic cells were quantified by sonicating the adherent bacteria in LB, followed by serial dilution and plating to determine CFUs on Pseudomonas Isolation Agar (Difco, Sparks, Md.). P. aeruginosa biofilm density was quantified by crystal violet (CV) staining (9). The contribution of background staining of neutrophil components, tubes and reagents were subtracted from depicted values. Neutrophils were lysed with 0.1% Tween 20 (BioRad, Hercules, Calif.) for 30 min. Neutrophil lysates relatively depleted of F-actin were prepared by precipitating the F-actin using the F-actin/G-actin In Vivo Biochem Kit (Cytoskeleton, Denver, Colo.). The total protein present in the whole cell lysate and the F-actin depleted lysate was determined by the Bradford Protein Assay (BioRad, Hercules, Calif.). Biofilm exopolysaccharide was determined by total carbohydrate assays as previously described (15).
Genomic DNA was isolated from neutrophils and P. aeruginosa using the DNeasy Tissue Kit (Qiagen, Valencia, Calif.) according to the manufacturer's protocol. Actin and DNA polymerization was performed as described previously (38). Effects of filament cleavage was tested by initially treating the samples with 90 Kunitz units/ml of DNase I (43) and/or 200 nM gelsolin (Sigma) (42). Granule proteins were isolated from homogenized human neutrophils by differential centrifugation in a discontinuous Percoll/sucrose gradient (34). Heavy and light granules were immediately suspended in RPMI media and added to P. aeruginosa.

actin-DNA filaments = experiment: Fluorescence microscopy of actin-DNA filaments in neutrophil lysates and CF sputum; design: species or system human; settings: data not shown
Experimental: Samples of sputa from CF patients chronically infected with P. aeruginosa were frozen in liquid nitrogen and stored at −20° C. At the time of analysis, sputa were thawed and resuspended carefully in PBS (1:4 vol/vol ratio) containing 10^7 CFU/ml of P. aeruginosa labeled with the intracellular fluorescent conjugate (CFDA SE) as described in the actin-binding protocol. Samples were incubated for 4 hours at 37° C., then dried on Superfrost/Plus microscope slides (Fisher Scientific) and stained for 15 min with 10 μl of 0.6 μM Alexa Fluor 546 Phalloidin (Molecular Probes), 10 μl of 0.2 μM DAPI, dilactate (Molecular Probes), to visualize F-actin and DNA. Visualization of actin (546/576 nm), DNA (358/461 nm), and P. aeruginosa (492/517 nm) were performed sequentially on the same field, followed by an “overlay” view at all 3 wavelengths. Neutrophil lysates were also combined with P. aeruginosa labeled with CFDA SE for 4 hrs at 37° C., and staining of F-actin and DNA was conducted as described for CF sputa.

P. aeruginosa biofilm [4] = settings: literature refs 39, 43; cited from earlier work
P. aeruginosa biofilm [5] = experiment: NUNC-TSP biofilm growth of P. aeruginosa suspended in mucin; assay type: cell-based
From the text: When P. aeruginosa was suspended in mucin rather then RPMI media, a similar effect was observed on NUNC-TSP biofilm growth. […] These aggregates of P. aeruginosa may represent the predominant structure of biofilms that are present in the CF airway, and the combination of neutrophils with mucin appears to enhance their formation.

[6] = PA01 + PMN, biofilm grown with neutrophils 24 hours
[7] = PA01 biofilm, without neutrophils
[8] = PA01 + PMN, planktonic, grown with neutrophils 24 hours
[9] = PA01 planktonic, without neutrophils

| Compound | MBEC [1, 6] | MBEC [1, 7] | Susceptibility of biofilms grown in the presence of neutrophils versus absence [1] | MIC [2, 8] | MIC [2, 9] | Effect on neutrophil-induced enhancement of biofilm formation [3] | Disruption of actin-DNA filaments (actin-DNA filaments) | Effect on bacterial growth or neutrophil survival [3] | Effect on P. aeruginosa biofilm formation (P. aeruginosa biofilm [4]) | Effect on biofilm growth (P. aeruginosa biofilm [5]; absence of neutrophils) | Effect on biofilm growth (P. aeruginosa biofilm [5]; presence of neutrophils) |
| --- | --- | --- | --- | --- | --- | --- | --- | --- | --- | --- | --- |
| NC[C@H]1O[C@H](O[C@H]2[C@H](O)[C@@H](O[C@H]3O[C@H](CO)[C@@H](O)[C@H](N)[C@H]3O)[C@H](N)C[C@@H]2N)[C@H](N)C[C@@H]1O [Tobramycin] | 256 µg/mL | >1024 µg/mL | significantly greater susceptibility | 0.5 µg/mL | 1 µg/mL (≈ 2.14 µM) | – | – | – | – | – | – |
| gelsolin | – | – | – | – | – | significantly reduced the neutrophil-induced enhancement of the biofilm | – | – | – | – | – |
| O=C(O)c1cn(C2CC2)c2cc(N3CCNCC3)c(F)cc2c1=O [Ciprofloxacin] | 128 µg/mL | 512 µg/mL | significantly greater susceptibility | 2 µg/mL | 0.5 µg/mL (≈ 1.51 µM) | – | – | – | – | – | – |
| DNase | – | – | – | – | – | abolished much of the neutrophil-induced enhancement of biofilm formation | near complete disruption of the actin-DNA filaments | without significantly inhibiting bacterial growth or neutrophil survival | strongly inhibited biofilm formation | – | – |
| mucin | – | – | – | – | – | – | – | – | – | increased biofilm growth | no change |
| CC(C)(O/N=C(\C(=O)N[C@@H]1C(=O)N2C(C(=O)[O-])=C(C[n+]3ccccc3)CS[C@H]12)c1csc(N)n1)C(=O)O [Ceftazidime] | >1024 µg/mL | >1024 µg/mL | unchanged | 2 µg/mL | 2 µg/mL (≈ 3.66 µM) | – | – | – | – | – | – |
| CC[C@H]1OC(=O)[C@H](C)[C@@H](O[C@H]2C[C@@](C)(OC)[C@@H](O)[C@H](C)O2)[C@H](C)[C@@H](O[C@@H]2O[C@H](C)C[C@H](N(C)C)[C@H]2O)[C@](C)(O)C[C@@H](C)CN(C)[C@H](C)[C@@H](O)[C@]1(C)O [Azithromycin] | 1024 µg/mL | >1024 µg/mL | unchanged | 32 µg/mL | 64 µg/mL (≈ 85.4 µM) | – | – | – | – | – | – |
